Reference: patent US20190330224A1, “ACC INHIBITORS AND USES THEREOF” (Gilead Apollo, LLC, priority 2015, published 2019)
Values after ≈ are worked out from the molar mass of the structure shown.

Experiments:
[1] = system: C. parapsilosis ATCC 22019; test: Anti-Fungal Activity Assay (broth microtiter MIC), C. parapsilosis; type: cell-based, Candida parapsilosis; conditions: Lodderomyces parapsilosis, ATCC22019, 48 h, 3 replicates; MIC recorded at 48 h; read-out: MIC C. parapsilosis ATCC 22019
Method: (§1) Compounds of the present invention were evaluated in an Anti-Fungal Activity Assay. An exemplary procedure for the assay, which measures the susceptibility of various Candida species to anti-fungal compounds, follows. Compounds to be tested (including fluconazole and amphotericin B) were dissolved in DMSO to obtain a solution having a concentration of 1 mg/mL. […] All species were grown from frozen stock by directly plating on to freshly prepared Sabouraud Dextrose agar (BD, Difco) and incubated overnight in ambient air at 35° C. for 24 h. A direct suspension was prepared in RPMI 1640+MOPS (Lonza, Biowhittaker) by taking individual colonies from the overnight cultures using sterile swabs soaked in sterile saline. The concentration of the suspension was determined using pre-determined standard curves. […] Broth microtiter MIC challenge plates were prepared following CLSI guidelines (M27-A3, Vol. 28 No. 14). The original CLSI guidelines focused on reading Candida MICs after 48 h of incubation. As reading after only 24 h offers a clear advantage of patient care, QC limits are being established for all drugs at 24 h. That being said there are no known interpretive breakpoints for amphotericin B at 24 h and the current fluconazole interpretive breakpoints are based on a 48 h reading. The MIC breakpoints for the test compounds were recorded at 48 h, and for the soraphen the 24 h time-point was added. All MIC determinations were achieved by visually comparing the growth found in the antibiotic challenged wells to that of the growth control.

Human ACC2 = Human ACC2 (Homo sapiens, UniProt O00763); test: In vitro ACC2 inhibition assay (ADP-Glo), human ACC2; type: biochemical; conditions: 5 nM ACC2, 20 μM ATP, 20 μM acetyl-CoA
C. albicans ATCC 90028 = test: Anti-Fungal Activity Assay (broth microtiter MIC), C. albicans; type: cell-based, Candida albicans; conditions: Candida albicans, ATCC90028, 48 h, 3 replicates; MIC recorded at 48 h; read-out: MIC C. albicans ATCC 90028
Method: as §1

C. krusei ATCC 6258 = test: Anti-Fungal Activity Assay (broth microtiter MIC), C. krusei; type: cell-based, Candida krusei; conditions: Pichia kudriavzevii, ATCC6258, 48 h, 3 replicates; MIC recorded at 48 h; read-out: MIC C. krusei ATCC 6258
Method: as §1

Chain of Human ACC2 (O00763 whole entry): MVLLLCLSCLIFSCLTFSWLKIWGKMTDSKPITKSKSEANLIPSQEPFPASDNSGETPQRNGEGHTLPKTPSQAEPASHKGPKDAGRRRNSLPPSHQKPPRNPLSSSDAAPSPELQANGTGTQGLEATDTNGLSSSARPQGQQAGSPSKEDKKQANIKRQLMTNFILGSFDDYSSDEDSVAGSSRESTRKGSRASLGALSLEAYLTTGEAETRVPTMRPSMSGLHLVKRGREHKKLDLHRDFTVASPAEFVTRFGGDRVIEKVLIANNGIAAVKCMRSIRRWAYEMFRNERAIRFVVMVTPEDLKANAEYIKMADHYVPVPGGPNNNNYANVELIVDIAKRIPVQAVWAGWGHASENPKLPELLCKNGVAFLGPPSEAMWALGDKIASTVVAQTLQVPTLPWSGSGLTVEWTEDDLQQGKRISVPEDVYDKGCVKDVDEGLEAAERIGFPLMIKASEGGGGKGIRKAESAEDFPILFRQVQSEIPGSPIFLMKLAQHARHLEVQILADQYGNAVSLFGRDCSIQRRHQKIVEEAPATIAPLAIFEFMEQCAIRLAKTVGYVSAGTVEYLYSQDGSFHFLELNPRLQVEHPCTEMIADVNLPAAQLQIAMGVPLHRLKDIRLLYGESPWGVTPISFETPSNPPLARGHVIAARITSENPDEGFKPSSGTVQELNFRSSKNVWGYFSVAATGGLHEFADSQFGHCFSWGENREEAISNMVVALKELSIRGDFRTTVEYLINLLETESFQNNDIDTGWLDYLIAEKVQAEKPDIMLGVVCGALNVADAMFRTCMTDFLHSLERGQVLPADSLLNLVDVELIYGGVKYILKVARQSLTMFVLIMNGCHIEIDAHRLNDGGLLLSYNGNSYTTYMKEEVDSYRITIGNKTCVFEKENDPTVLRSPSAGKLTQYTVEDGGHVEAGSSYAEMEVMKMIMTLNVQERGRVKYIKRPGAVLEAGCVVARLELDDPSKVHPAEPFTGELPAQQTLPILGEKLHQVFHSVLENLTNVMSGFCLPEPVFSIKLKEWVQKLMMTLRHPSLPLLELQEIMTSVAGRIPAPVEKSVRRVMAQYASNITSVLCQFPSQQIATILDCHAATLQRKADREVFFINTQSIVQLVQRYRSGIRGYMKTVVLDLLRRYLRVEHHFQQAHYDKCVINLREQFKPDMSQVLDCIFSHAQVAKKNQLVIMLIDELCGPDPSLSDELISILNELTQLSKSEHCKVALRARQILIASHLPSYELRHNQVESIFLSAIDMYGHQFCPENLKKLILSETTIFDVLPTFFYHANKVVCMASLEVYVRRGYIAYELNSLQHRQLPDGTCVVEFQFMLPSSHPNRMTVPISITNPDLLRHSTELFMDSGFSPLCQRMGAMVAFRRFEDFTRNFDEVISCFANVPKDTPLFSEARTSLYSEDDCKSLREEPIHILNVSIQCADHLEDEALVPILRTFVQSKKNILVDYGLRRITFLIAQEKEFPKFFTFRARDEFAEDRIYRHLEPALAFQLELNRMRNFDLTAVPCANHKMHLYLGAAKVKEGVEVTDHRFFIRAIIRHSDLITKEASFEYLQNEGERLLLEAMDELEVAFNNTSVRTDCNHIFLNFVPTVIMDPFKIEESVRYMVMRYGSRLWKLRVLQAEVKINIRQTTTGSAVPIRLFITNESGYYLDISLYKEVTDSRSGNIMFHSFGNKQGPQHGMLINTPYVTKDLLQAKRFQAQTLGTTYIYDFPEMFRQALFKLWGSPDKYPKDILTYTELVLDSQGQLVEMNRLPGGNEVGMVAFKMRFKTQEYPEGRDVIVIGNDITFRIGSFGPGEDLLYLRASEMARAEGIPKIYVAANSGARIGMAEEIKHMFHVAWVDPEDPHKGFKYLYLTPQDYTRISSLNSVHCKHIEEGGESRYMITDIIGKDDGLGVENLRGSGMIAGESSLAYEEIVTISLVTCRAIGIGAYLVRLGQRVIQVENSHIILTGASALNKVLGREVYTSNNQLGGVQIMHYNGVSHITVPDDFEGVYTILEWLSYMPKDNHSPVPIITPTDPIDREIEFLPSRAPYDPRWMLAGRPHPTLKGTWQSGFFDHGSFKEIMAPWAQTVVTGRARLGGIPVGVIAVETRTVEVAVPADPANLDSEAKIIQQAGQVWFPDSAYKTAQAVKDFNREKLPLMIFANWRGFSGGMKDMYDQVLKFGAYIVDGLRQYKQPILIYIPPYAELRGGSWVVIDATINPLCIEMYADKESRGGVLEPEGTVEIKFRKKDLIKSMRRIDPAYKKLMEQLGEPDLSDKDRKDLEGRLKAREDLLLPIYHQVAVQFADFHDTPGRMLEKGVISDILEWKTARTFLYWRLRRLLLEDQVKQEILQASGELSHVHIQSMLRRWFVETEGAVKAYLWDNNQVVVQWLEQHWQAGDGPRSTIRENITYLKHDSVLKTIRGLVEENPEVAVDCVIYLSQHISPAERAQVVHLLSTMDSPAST

Structure (SMILES)	MIC [1] [µg/mL]	IC50 (Human ACC2) [µM]	MIC (C. albicans ATCC 90028) [µg/mL]	MIC (C. krusei ATCC 6258) [µg/mL]
COc1ccc(F)cc1[C@H](Cn1c(=O)n([C@@H]2CCCNC2=O)c(=O)c2c(C)c(-n3nccn3)sc21)OC1CCOCC1 [Compound I-38, 1-((R)-2-(5-fluoro-2-methoxyphenyl)-2-((tetrahydro-2H-pyran-4-yl)oxy)ethyl)-5-methyl-3-((R)-2-oxopiperidin-3-yl)-6-(2H-1,2,3-triazol-2-yl)thieno[2,3-d]pyrimidine-2,4(1H,3H)-dione]	2.1 to 4 (≈ 3.51 to 6.68 µM)	0.01 to 0.1	2.1 to 4 (≈ 3.51 to 6.68 µM)	2.1 to 4 (≈ 3.51 to 6.68 µM)
COc1ccc(F)cc1[C@H](Cn1c(=O)n(C2CCCN(C)C2=O)c(=O)c2c(C)c(-c3ncco3)sc21)OC1CCOCC1 (stereo partly drawn) [Compound I-52, 1-((R)-2-(5-fluoro-2-methoxyphenyl)-2-((tetrahydro-2H-pyran-4-yl)oxy)ethyl)-5-methyl-3-(I-methyl-2-oxopiperidin-3-yl)-6-(oxazol-2-yl)thieno[2,3-d]pyrimidine-2,4(1H,3H)-dione]	2.1 to 4 (≈ 3.43 to 6.53 µM)	0.01 to 0.1	2.1 to 4 (≈ 3.43 to 6.53 µM)	1.1 to 2 (≈ 1.8 to 3.26 µM)
COc1ccc(F)cc1[C@H](Cn1c(=O)n(C2CCN(C)C2=O)c(=O)c2c(C)c(-c3ncco3)sc21)OC1CCOCC1 (stereo partly drawn) [Compound I-59, 1-((R)-2-(5-fluoro-2-methoxyphenyl)-2-((tetrahydro-2H-pyran-4-yl)oxy)ethyl)-5-methyl-3-(1-methyl-2-oxopyrrolidin-3-yl)-6-(oxazol-2-yl)thieno[2,3-d]pyrimidine-2,4(1H,3H)-dione]	2.1 to 4 (≈ 3.51 to 6.68 µM)	0.002 to 0.01	1.1 to 2 (≈ 1.84 to 3.34 µM)	0.25 to 1 (≈ 0.418 to 1.67 µM)
COc1ccc(F)cc1[C@H](Cn1c(=O)n([C@H]2CCCNC2=O)c(=O)c2c(C)c(-c3ncco3)sc21)OCCO [Compound I-62, 1-((R)-2-(5-fluoro-2-methoxyphenyl)-2-(2-hydroxy-ethoxy)ethyl)-5-methyl-6-(oxazol-2-yl)-3-((S)-2-oxopiperidin-3-yl)thieno[2,3-d]pyrimidine-2,4(1H,3H)-dione]	2.1 to 4 (≈ 3.76 to 7.16 µM)	0.01 to 0.1	2.1 to 4 (≈ 3.76 to 7.16 µM)	2.1 to 4 (≈ 3.76 to 7.16 µM)
COc1ccc(F)cc1[C@H](Cn1c(=O)n([C@H]2CCCN(C)C2=O)c(=O)c2c(C)c(-c3ncco3)sc21)OCCO [Compound I-63, 1-((R)-2-(5-fluoro-2-methoxyphenyl)-2-(2-hydroxy-ethoxy)ethyl)-5-methyl-3-((S)-1-methyl-2-oxopiperidin-3-yl)-6-(oxazol-2-yl)thieno[2,3-d]pyrimidine-2,4(1H,3H)-dione]	2.1 to 4 (≈ 3.67 to 6.99 µM)	0.01 to 0.1	2.1 to 4 (≈ 3.67 to 6.99 µM)	2.1 to 4 (≈ 3.67 to 6.99 µM)
COc1ccc(F)cc1[C@H](Cn1c(=O)n([C@@H]2CCCNC2=O)c(=O)c2c(C)c(-c3ncco3)sc21)OCCO [Compound I-64, 1-((R)-2-(5-fluoro-2-methoxyphenyl)-2-(2-hydroxy-ethoxy)ethyl)-5-methyl-6-(oxazol-2-yl)-3-((R)-2-oxopiperidin-3-yl)thieno[2,3-d]pyrimidine-2,4(1H,3H)-dione]	2.1 to 4 (≈ 3.76 to 7.16 µM)	0.01 to 0.1	2.1 to 4 (≈ 3.76 to 7.16 µM)	2.1 to 4 (≈ 3.76 to 7.16 µM)
COc1ccc(F)cc1[C@H](Cn1c(=O)n([C@@H]2CCCN(C)C2=O)c(=O)c2c(C)c(-c3ncco3)sc21)OCCO [Compound I-65, 1-((R)-2-(5-fluoro-2-methoxyphenyl)-2-(2-hydroxy-ethoxy)ethyl)-5-methyl-3-((R)-1-methyl-2-oxopiperidin-3-yl)-6-(oxazol-2-yl)thieno[2,3-d]pyrimidine-2,4(1H,3H)-dione]	2.1 to 4 (≈ 3.67 to 6.99 µM)	0.01 to 0.1	2.1 to 4 (≈ 3.67 to 6.99 µM)	2.1 to 4 (≈ 3.67 to 6.99 µM)
COc1ccc(F)cc1[C@H](Cn1c(=O)n([C@]2(C)CCC(=O)NC2)c(=O)c2c(C)c(-n3nccn3)sc21)OCCO [Compound I-133, 1-((R)-2-(5-fluoro-2-methoxyphenyl)-2-(2-hydroxy-ethoxy)ethyl)-5-methyl-3-((R)-3-methyl-6-oxopiperidin-3-yl)-6-(2H-1,2,3-triazol-2-yl)thieno[2,3-d]pyrimidine-2,4(1H,3H)-dione]	2.1 to 4 (≈ 3.67 to 6.99 µM)	0.01 to 0.1	2.1 to 4 (≈ 3.67 to 6.99 µM)	2.1 to 4 (≈ 3.67 to 6.99 µM)
COc1ccc(F)cc1[C@H](Cn1c(=O)n([C@@]2(C)CCC(=O)NC2)c(=O)c2c(C)c(-n3nccn3)sc21)OCCO [Compound I-135, 1-((R)-2-(5-fluoro-2-methoxyphenyl)-2-(2-hydroxy-ethoxy)ethyl)-5-methyl-3-((S)-3-methyl-6-oxopiperidin-3-yl)-6-(2H-1,2,3-triazol-2-yl)thieno[2,3-d]pyrimidine-2,4(1H,3H)-dione]	2.1 to 4 (≈ 3.67 to 6.99 µM)	0.01 to 0.1	2.1 to 4 (≈ 3.67 to 6.99 µM)	2.1 to 4 (≈ 3.67 to 6.99 µM)

Now from value to compound:

MIC [1] [µg/mL]	IC50 (Human ACC2) [µM]	MIC (C. albicans ATCC 90028) [µg/mL]	MIC (C. krusei ATCC 6258) [µg/mL]	Structure (SMILES)
2.1 to 4 (≈ 3.62 to 6.89 µM)	0.01 to 0.1	1.1 to 2 (≈ 1.89 to 3.44 µM)	2.1 to 4 (≈ 3.62 to 6.89 µM)	COc1ccccc1[C@H](Cn1c(=O)n(C2CCCNC2=O)c(=O)c2c(C)c(-c3ncco3)sc21)OC1CCOCC1 (stereo partly drawn) [Compound I-49, 1-((R)-2-(2-methoxyphenyl)-2-((tetrahydro-2H-pyran-4-yl)oxy)ethyl)-5-methyl-6-(oxazol-2-yl)-3-(2-oxopiperidin-3-yl)thieno[2,3-d]pyrimidine-2,4(1H,3H)-dione]
2.1 to 4 (≈ 3.53 to 6.73 µM)	0.01 to 0.1	2.1 to 4 (≈ 3.53 to 6.73 µM)	2.1 to 4 (≈ 3.53 to 6.73 µM)	COc1ccccc1[C@H](Cn1c(=O)n(C2CCCN(C)C2=O)c(=O)c2c(C)c(-c3ncco3)sc21)OC1CCOCC1 (stereo partly drawn) [Compound I-50, 1-((R)-2-(2-methoxyphenyl)-2-((tetrahydro-2H-pyran-4-yl)oxy)ethyl)-5-methyl-3-(1-methyl-2-oxopiperidin-3-yl)-6-(oxazol-2-yl)thieno[2,3-d]pyrimidine-2,4(1H,3H)-dione]
2.1 to 4 (≈ 3.51 to 6.68 µM)	0.01 to 0.1	1.1 to 2 (≈ 1.84 to 3.34 µM)	2.1 to 4 (≈ 3.51 to 6.68 µM)	COc1ccc(F)cc1[C@H](Cn1c(=O)n(C2CCCNC2=O)c(=O)c2c(C)c(-c3ncco3)sc21)OC1CCOCC1 (stereo partly drawn) [Compound I-51, 1-((R)-2-(5-fluoro-2-methoxyphenyl)-2-((tetrahydro-2H-pyran-4-yl)oxy)ethyl)-5-methyl-6-(oxazol-2-yl)-3-(2-oxopiperidin-3-yl)thieno[2,3-d]pyrimidine-2,4(1H,3H)-dione]
2.1 to 4 (≈ 3.71 to 7.06 µM)	0.002 to 0.01	2.1 to 4 (≈ 3.71 to 7.06 µM)	2.1 to 4 (≈ 3.71 to 7.06 µM)	COc1ccccc1[C@H](Cn1c(=O)n(C2CCNC2=O)c(=O)c2c(C)c(-c3ncco3)sc21)OC1CCOCC1 (stereo partly drawn) [Compound I-56, 1-((R)-2-(2-methoxyphenyl)-2-((tetrahydro-2H-pyran-4-yl)oxy)ethyl)-5-methyl-6-(oxazol-2-yl)-3-(2-oxopyrrolidin-3-yl)thieno[2,3-d]pyrimidine-2,4(1H,3H)-dione]
2.1 to 4 (≈ 3.62 to 6.89 µM)	0.01 to 0.1	1.1 to 2 (≈ 1.89 to 3.44 µM)	1.1 to 2 (≈ 1.89 to 3.44 µM)	COc1ccccc1[C@H](Cn1c(=O)n(C2CCN(C)C2=O)c(=O)c2c(C)c(-c3ncco3)sc21)OC1CCOCC1 (stereo partly drawn) [Compound I-57, 1-((R)-2-(2-methoxyphenyl)-2-((tetrahydro-2H-pyran-4-yl)oxy)ethyl)-5-methyl-3-(1-methyl-2-oxopyrrolidin-3-yl)-6-(oxazol-2-yl)thieno[2,3-d]pyrimidine-2,4(1H,3H)-dione]
2.1 to 4 (≈ 3.59 to 6.84 µM)	0.002 to 0.01	2.1 to 4 (≈ 3.59 to 6.84 µM)	2.1 to 4 (≈ 3.59 to 6.84 µM)	COc1ccc(F)cc1[C@H](Cn1c(=O)n(C2CCNC2=O)c(=O)c2c(C)c(-c3ncco3)sc21)OC1CCOCC1 (stereo partly drawn) [Compound I-58, 1-((R)-2-(5-fluoro-2-methoxyphenyl)-2-((tetrahydro-2H-pyran-4-yl)oxy)ethyl)-5-methyl-6-(oxazol-2-yl)-3-(2-oxopyrrolidin-3-yl)thieno[2,3-d]pyrimidine-2,4(1H,3H)-dione]
